The source of these data is ChEMBL document CHEMBL1255252, “E240V substitution increases catalytic efficiency toward ceftazidime in a new natural TEM-type extended-spectrum beta-lactamase, TEM-149, from Enterobacter aerogenes and Serratia marcescens clinical isolates” (2008).

In brackets after ≈: the same amount, converted by molar mass.

One experiment relates to Serratia marcescens. The experiment can be described thus: Antimicrobial activity against Serratia marcescens isolate CT-118 by broth macrodilution method. It counts as functional.
For experiment [1], the system named is Escherichia coli. In words: Antimicrobial activity against Escherichia coli HB101 harboring empty vector pBK-SK by broth macrodilution method. It counts as functional.
A short description of experiment [2]: Ratio of Kcat to Km for Beta-lactamase TEM-149 T182M mutant expressed in Escherichia coli HB101.
Experiment [3] is described as follows: Ratio of Kcat to Km for Beta-lactamase TEM-149 expressed in Escherichia coli HB101.
For another experiment, the system named is Klebsiella aerogenes. The experiment can be described thus: Antimicrobial activity against Enterobacter aerogenes isolate SS-13 by broth macrodilution method. In kind it is functional.
Experiment [4] relates to Escherichia coli. In words: Antimicrobial activity against Escherichia coli HB101 expressing plasmid encoded TEM-149 T182M mutant by broth macrodilution method. It counts as functional.
A short description of experiment [5]: Activity of Beta-lactamase TEM-149 expressed in Escherichia coli HB101.
Experiment [6] in a line: Activity of Beta-lactamase TEM-149 T182M mutant expressed in Escherichia coli HB101.
In experiment [7] the test system is Escherichia coli. The experiment can be described thus: Antimicrobial activity against Escherichia coli HB101 expressing recombinant plasmid encoded TEM-149 by broth macrodilution method. In kind it is functional.
Experiment [8] can be described thus: Ratio of Kcat to Km for Beta-lactamase TEM-10.
Experiment [9] is described as follows: Activity of Beta-lactamase TEM-10.

`CO/N=C(\C(=O)N[C@@H]1C(=O)N2C(C(=O)[O-])=C(C[N+]3(C)CCCC3)CS[C@H]12)c1csc(N)n1`: the MIC (commonly the least concentration at which growth counts as inhibited) with Serratia marcescens is more than 64 µg/mL; against Escherichia coli [1], 1 µg/mL (≈ 2.08 µM); in the experiment with Klebsiella aerogenes, more than 64 µg/mL; with Escherichia coli [4], less than 0.125 µg/mL; in the experiment with Escherichia coli [7] it was 8 µg/mL. The kcat/Km (commonly the turnover number divided by the Michaelis constant) came out at 14000 M⁻¹ s⁻¹ in experiment [2] and 150000 M⁻¹ s⁻¹ in experiment [3]. In addition, the Km (in general, the concentration of substrate that gives half-maximal velocity) was 16 µM in experiment [5] and 30 µM in [6]. Besides, the kcat (in general, the maximal rate divided by the concentration of active sites) in experiment [5] worked out at 2.4 s⁻¹; in [6] it was 0.43 s⁻¹.

For the compound `CC1(C)S[C@@H]2[C@H](NC(=O)Cc3ccccc3)C(=O)N2[C@H]1C(=O)O`, the figures for the specificity constant (kcat/Km) in [8], in [2] and in experiment [3] were 2.55e+07 M⁻¹ s⁻¹, 1.5e+07 M⁻¹ s⁻¹ and 5.8e+06 M⁻¹ s⁻¹, respectively. Besides, the figures for the Km in experiment [9], in [5] and in experiment [6] were 2 µM, 0.6 µM and 0.7 µM, respectively. Also, the turnover number (kcat) in experiment [9] was found to be 51 s⁻¹; in experiment [5], 3.5 s⁻¹; in experiment [6], 10.5 s⁻¹.

For `CC1(C)S[C@@H]2[C@H](NC(=O)[C@H](N)c3ccccc3)C(=O)N2[C@H]1C(=O)O`, the kcat/Km in experiment [8] was 3.1e+06 M⁻¹ s⁻¹; in [2], 127000 M⁻¹ s⁻¹; in [3], 1.08e+06 M⁻¹ s⁻¹. Also, the Michaelis-Menten constant (Km) in experiment [9] was 4 µM; in experiment [5], 5 µM; in [6] it was 19 µM. In addition, the turnover number (kcat) was found to be 12.5 s⁻¹ in [9], 5.4 s⁻¹ in experiment [5] and 2.4 s⁻¹ in experiment [6].

In the case of `CC1(C)S[C@@H]2[C@H](NC(=O)[C@H](N)c3ccc(O)cc3)C(=O)N2[C@H]1C(=O)O` [AMOXICILLIN], the MIC was more than 64 µg/mL against Serratia marcescens, more than 64 µg/mL with Klebsiella aerogenes, 8 µg/mL (≈ 21.9 µM) against Escherichia coli [4] and more than 64 µg/mL in the experiment on Escherichia coli [7].

With `C[C@H]1[C@H](NC(=O)/C(=N\OC(C)(C)C(=O)O)c2csc(N)n2)C(=O)N1S(=O)(=O)O` [AZTREONAM], the MIC in the experiment on Serratia marcescens is more than 64 µg/mL; against Escherichia coli [1], 64 µg/mL (≈ 147 µM); in the experiment with Klebsiella aerogenes, more than 64 µg/mL; with Escherichia coli [4] it was less than 0.125 µg/mL; with Escherichia coli [7], more than 64 µg/mL. Moreover, the kcat/Km was determined as 70000 M⁻¹ s⁻¹ in experiment [8], 130000 M⁻¹ s⁻¹ in experiment [2] and 92000 M⁻¹ s⁻¹ in [3]. Moreover, the Michaelis-Menten constant (Km) is 28 µM in [9], 51 µM in [5] and 27 µM in [6]. The figures for the kcat in [9], in experiment [5] and in experiment [6] were 2 s⁻¹, 4.7 s⁻¹ and 3.6 s⁻¹, respectively.

As to `Cc1nnc(SCC2=C(C(=O)O)N3C(=O)[C@@H](NC(=O)Cn4cnnn4)[C@H]3SC2)s1` [CEFAZOLIN], the MIC with Serratia marcescens is more than 64 µg/mL; in the experiment with Escherichia coli [1], 4 µg/mL (≈ 8.8 µM); against Klebsiella aerogenes, more than 64 µg/mL; against Escherichia coli [4] it was 1 µg/mL (≈ 2.2 µM); with Escherichia coli [7], 32 µg/mL. Also, the catalytic efficiency (kcat/Km) is 30000 M⁻¹ s⁻¹ in experiment [8], 16000 M⁻¹ s⁻¹ in experiment [2] and 32000 M⁻¹ s⁻¹ in experiment [3]. The Km in experiment [9] stood at 417 µM; in experiment [5] it was 68 µM; in experiment [6], 35 µM. Further, the turnover number (kcat) came out at 12.5 s⁻¹ in experiment [9], 2.2 s⁻¹ in experiment [5] and 0.56 s⁻¹ in [6].

On to `CO/N=C(\C(=O)N[C@@H]1C(=O)N2C(C(=O)O)=C(COC(C)=O)CS[C@H]12)c1csc(N)n1` [CEFOTAXIME], for which the minimum inhibitory concentration (MIC) with Serratia marcescens is more than 128 µg/mL; in the experiment on Escherichia coli [1] it was 4 µg/mL (≈ 8.78 µM); against Klebsiella aerogenes, more than 128 µg/mL; against Escherichia coli [4] it was less than 0.125 µg/mL; in the experiment with Escherichia coli [7], 1 µg/mL. Also, the catalytic efficiency (kcat/Km) in [8] turned out to be 10000 M⁻¹ s⁻¹; in experiment [2], 13000 M⁻¹ s⁻¹; in experiment [3], 1600 M⁻¹ s⁻¹. Also, the values for the Km in experiment [9], in [5] and in experiment [6] were 30 µM, 43 µM and 32 µM, respectively. Besides, the results for the kcat in [9], in [5] and in experiment [6] were 0.3 s⁻¹, 0.07 s⁻¹ and 0.41 s⁻¹, respectively.

As to `CC(C)(O/N=C(\C(=O)N[C@@H]1C(=O)N2C(C(=O)[O-])=C(C[n+]3ccccc3)CS[C@H]12)c1csc(N)n1)C(=O)O` [CEFTAZIDIME], the minimal inhibitory concentration (MIC) in the experiment with Serratia marcescens was more than 64 µg/mL; against Escherichia coli [1] it was more than 64 µg/mL; against Klebsiella aerogenes, more than 64 µg/mL; in the experiment on Escherichia coli [4], 0.5 µg/mL (≈ 0.915 µM); with Escherichia coli [7] it was more than 64 µg/mL. Besides, the catalytic efficiency (kcat/Km) is 28000 M⁻¹ s⁻¹ in experiment [8], 320000 M⁻¹ s⁻¹ in [2] and 440000 M⁻¹ s⁻¹ in [3]. The Km in experiment [9] is 607 µM; in experiment [5], 19 µM; in experiment [6], 26 µM. The kcat in experiment [9] was determined as 17 s⁻¹; in experiment [5], 8.3 s⁻¹; in [6], 8.3 s⁻¹.

`CCN1CCN(C(=O)N[C@@H](C(=O)N[C@@H]2C(=O)N3[C@@H]2SC(C)(C)[C@@H]3C(=O)O)c2ccccc2)C(=O)C1=O` [PIPERACILLIN]: the minimum inhibitory concentration (MIC) against Serratia marcescens is more than 256 µg/mL; in the experiment with Escherichia coli [1], 32 µg/mL (≈ 61.8 µM); against Klebsiella aerogenes it was more than 256 µg/mL; with Escherichia coli [4] it was 1 µg/mL (≈ 1.93 µM); in the experiment on Escherichia coli [7], more than 256 µg/mL. For the same compound, the values for the kcat/Km in experiment [2] and in experiment [3] were 1.47e+06 M⁻¹ s⁻¹ and 1.92e+06 M⁻¹ s⁻¹, respectively. In addition, the Michaelis-Menten constant (Km) in experiment [5] turned out to be 1.4 µM; in [6] it was 3.4 µM. Also, the figures for the kcat in experiment [5] and in experiment [6] were 2.7 s⁻¹ and 5 s⁻¹, respectively.
